From PMC6044556 (ACS Omega, 2017)

Columns and labels:
[1] = GABA–CTP BBB penetration experiment: GABA in plasma of mice by LC–MS; format: in vivo, mice (Kunming); conditions: male mice, one bolus intravenous injection via tail vein (GABA 50 mg/kg, GABA–CPP 10 mg/kg)
mice = experiment: Behavior of the mice after injection; format: in vivo, mice (Kunming); conditions: intravenous injection, GABA 50 mg/kg or GABA–CPP 10 mg/kg, symptom with GABA–CPP appeared a bit worse

GABA concentration in plasma within 2 min after injection [1]: 7985 ng/mL
GABA concentration in plasma within 1 h after injection [1]: 141 ng/mL
Compound: NCCCC(=O)O [GABA, γ-aminobutyric acid]
behavior of the mice after injection (mice): quiet and sleepy behavior
